Test system: Exophiala dermatitidis CA01
Assay: Broth microdilution chequerboard analysis of Lynovex (NM001) in combination with clinical antifungals
Type: cell-based
Details: 35° C.; for MIC50: Exophiala dermatitidis, NM001 in isolation
Protocol: The aim of the experiment was to determine the effect of Lynovex (NM001) on the antifungal drug susceptibility of Exophiala dermatitidis CA01. Microtitre plates were prepared following CLSI recommendations for broth microdilution chequerboard method. These plates contained a serial doubling dilution of Lynovex (NM001) combined with serial doubling dilutions of antifungals drugs; Fluconazole, Itraconazole, Caspofungin and Amphotericin B. […] These were incubated at 35° C. and read at 72 h, 96 h, 120 h and 144 h on the BioTek plate reader. […] Three independent E. dermatitidis CA01 cultures were grown on PDA slope for 6 days at 35° C. • 7. Cultures were removed from incubator. 2 ml sterile 0.15M NaCl added to the overnight culture and cells harvested from the surface of the agar. Cells placed in fresh bijou tube. • 8. The cultures were allowed to rest for up to 10 minutes, allowing any hyphae to settle to the bottom. The top layer of conidia was removed into fresh bijou. Hyphae were discarded. • 9. […] This is continued to F12 where 100 μl is removed and discarded. • f. This dilution series was repeated in rows G-H for the remaining 2 cultures • g. Plate read at OD530 on BioTek • h. […] This preparation step occurs in two parts. First, Lynovex (NM001) and antifungals are serially diluted, down and across microtitre plates, respectively. Equal volumes of Lynovex and antifungal are then combined in a fresh microtitre plate, prior to inoculation. […] Stock solutions of Lynovex and antifungals were prepared at 4× desired concentrations. The plate layout at the end of this protocol is the final concentration in the plate following the combination of Lynovex and antifungals and the addition of the inocula. […] All other wells contain 150 μl sterile dH2O. • 9. Serial doubling dilutions are carried out from A to B whereby 150 μl is removed from A and placed into B and mixed well. Then take 150 μl B and place in C and mix well. This is repeated down to row G where the final 150 μl is discarded. […] The same procedure is repeated for the other 4 antifungals, carrying the dilutions across the plate i.e. […] At the final dilution in column 10, the final 150 μl is discarded. […] Inoculating Plates with E. dermatitidis CA01 • 6. Add 100 μl (total volume 200 μl) of the prepared E. dermatitidis CA01 culture to the all wells on the plate except wells H12. […] H12 will contain 100 μl water and 100 μl 2×RPMI-1640 alone, constituting an uninoculated control. • 8. The plate is read in the BioTek at OD530. • 9. Plates are then placed in a plastic box containing a Petri dish of water, sealed and incubated at 35° C. The presence of the water in the dish or on the tissue provides and environment of relatively high humidity. • 10. OD530 is then read at 72 h, 96 h, 120 h and 144 h and raw data processed using Microsoft Excel. • 11. Fractional Inhibitory Concentration (FIC) Index values are generated using MIC100 for 72 h data and MIC50 for later time points using the following formula: […]

- MIC50 (CA01, 72 h, GEOMEAN, Amphotericin B chequerboard, 72 h): 461 µg/mL
- MIC50 (CA01, 72 h, GEOMEAN, Caspofungin chequerboard, 72 h): 1250 µg/mL
- MIC50 (CA01, 72 h, GEOMEAN, Fluconazole chequerboard, 72 h): 1250 µg/mL
- MIC50 (CA01, 72 h, GEOMEAN, Itraconazole chequerboard, 72 h): 1250 µg/mL
- MIC50 (CA01, 72 h, MEAN, Amphotericin B chequerboard, 72 h): 667 µg/mL
- MIC50 (CA01, 72 h, MEAN, Caspofungin chequerboard, 72 h): 1460 µg/mL
- MIC50 (CA01, 72 h, MEAN, Fluconazole chequerboard, 72 h): 1250 µg/mL
- MIC50 (CA01, 72 h, MEAN, Itraconazole chequerboard, 72 h): 1510 µg/mL
- MIC50 (CA01, 72 h, Range, Amphotericin B chequerboard, 72 h): 125 to 1250 µg/mL
- MIC50 (CA01, 72 h, Range, Caspofungin chequerboard, 72 h): 625 to 2500 µg/mL
- MIC50 (CA01, 72 h, Range, Fluconazole chequerboard, 72 h): 1250 µg/mL
- MIC50 (CA01, 72 h, Range, Itraconazole chequerboard, 72 h): 312 to 2500 µg/mL
- MIC50 (CA01, 96 h, GEOMEAN, Amphotericin B chequerboard, 96 h): 625 µg/mL
- MIC50 (CA01, 96 h, GEOMEAN, Caspofungin chequerboard, 96 h): 1090 µg/mL
- MIC50 (CA01, 96 h, GEOMEAN, Fluconazole chequerboard, 96 h): 787 µg/mL
- MIC50 (CA01, 96 h, GEOMEAN, Itraconazole chequerboard, 96 h): 1130 µg/mL
- MIC50 (CA01, 96 h, MEAN, Amphotericin B chequerboard, 96 h): 885 µg/mL
- MIC50 (CA01, 96 h, MEAN, Caspofungin chequerboard, 96 h): 1530 µg/mL
- MIC50 (CA01, 96 h, MEAN, Fluconazole chequerboard, 96 h): 885 µg/mL
- MIC50 (CA01, 96 h, MEAN, Itraconazole chequerboard, 96 h): 1520 µg/mL
- MIC50 (CA01, 96 h, Range, Amphotericin B chequerboard, 96 h): 156 to 1250 µg/mL
- MIC50 (CA01, 96 h, Range, Caspofungin chequerboard, 96 h): 156 to 2500 µg/mL
- MIC50 (CA01, 96 h, Range, Fluconazole chequerboard, 96 h): 312 to 1250 µg/mL
- MIC50 (CA01, 96 h, Range, Itraconazole chequerboard, 96 h): 312 to 2500 µg/mL
- MIC50 (CA01, 120 h, GEOMEAN, Amphotericin B chequerboard, 120 h): 743 µg/mL
- MIC50 (CA01, 120 h, GEOMEAN, Caspofungin chequerboard, 120 h): 1440 µg/mL
- MIC50 (CA01, 120 h, GEOMEAN, Fluconazole chequerboard, 120 h): 1770 µg/mL
- MIC50 (CA01, 120 h, GEOMEAN, Itraconazole chequerboard, 120 h): 1250 µg/mL
- MIC50 (CA01, 120 h, MEAN, Amphotericin B chequerboard, 120 h): 977 µg/mL
- MIC50 (CA01, 120 h, MEAN, Caspofungin chequerboard, 120 h): 1750 µg/mL
- MIC50 (CA01, 120 h, MEAN, Fluconazole chequerboard, 120 h): 1880 µg/mL
- MIC50 (CA01, 120 h, MEAN, Itraconazole chequerboard, 120 h): 1500 µg/mL
- MIC50 (CA01, 120 h, Range, Amphotericin B chequerboard, 120 h): 156 to 1250 µg/mL
- MIC50 (CA01, 120 h, Range, Caspofungin chequerboard, 120 h): 625 to 2500 µg/mL
- MIC50 (CA01, 120 h, Range, Fluconazole chequerboard, 120 h): 1250 to 2500 µg/mL
- MIC50 (CA01, 120 h, Range, Itraconazole chequerboard, 120 h): 625 to 2500 µg/mL
- MIC50 (CA01, 144 h, GEOMEAN, Amphotericin B chequerboard, 144 h): 787 µg/mL
- MIC50 (CA01, 144 h, GEOMEAN, Caspofungin chequerboard, 144 h): 1580 µg/mL
- MIC50 (CA01, 144 h, GEOMEAN, Fluconazole chequerboard, 144 h): 1490 µg/mL
- MIC50 (CA01, 144 h, GEOMEAN, Itraconazole chequerboard, 144 h): 1770 µg/mL
- MIC50 (CA01, 144 h, MEAN, Amphotericin B chequerboard, 144 h): 1300 µg/mL
- MIC50 (CA01, 144 h, MEAN, Caspofungin chequerboard, 144 h): 1880 µg/mL
- MIC50 (CA01, 144 h, MEAN, Fluconazole chequerboard, 144 h): 1720 µg/mL
- MIC50 (CA01, 144 h, MEAN, Itraconazole chequerboard, 144 h): 2030 µg/mL
- MIC50 (CA01, 144 h, Range, Amphotericin B chequerboard, 144 h): 156 to 2500 µg/mL
- MIC50 (CA01, 144 h, Range, Caspofungin chequerboard, 144 h): 625 to 2500 µg/mL
- MIC50 (CA01, 144 h, Range, Fluconazole chequerboard, 144 h): 625 to 2500 µg/mL
- MIC50 (CA01, 144 h, Range, Itraconazole chequerboard, 144 h): 625 to 2500 µg/mL
- NM001 MIC100 in Combination (GEOMEAN, in combination with Amphotericin B, 72 h): 39 µg/mL
- NM001 MIC50 in Combination (GEOMEAN, in combination with Amphotericin B, 96 h): 55 µg/mL
- NM001 MIC50 in Combination (GEOMEAN, in combination with Amphotericin B, 120 h): 156 µg/mL
- NM001 MIC50 in Combination (GEOMEAN, in combination with Amphotericin B, 144 h): 442 µg/mL
- NM001 MIC100 in Combination (GEOMEAN, in combination with Caspofungin, 72 h): 78 µg/mL
- NM001 MIC50 in Combination (GEOMEAN, in combination with Caspofungin, 96 h): 90 µg/mL
- NM001 MIC50 in Combination (GEOMEAN, in combination with Caspofungin, 120 h): 118 µg/mL
- NM001 MIC50 in Combination (GEOMEAN, in combination with Caspofungin, 144 h): 394 µg/mL
- NM001 MIC100 in Combination (GEOMEAN, in combination with Fluconazole, 72 h): 312.5 µg/mL
- NM001 MIC50 in Combination (GEOMEAN, in combination with Fluconazole, 96 h): 139 µg/mL
- NM001 MIC50 in Combination (GEOMEAN, in combination with Fluconazole, 120 h): 263 µg/mL
- NM001 MIC50 in Combination (GEOMEAN, in combination with Fluconazole, 144 h): 263 µg/mL
- NM001 MIC100 in Combination (GEOMEAN, in combination with Itraconazole, 72 h): 179 µg/mL
- NM001 MIC50 in Combination (GEOMEAN, in combination with Itraconazole, 96 h): 78 µg/mL
- NM001 MIC50 in Combination (GEOMEAN, in combination with Itraconazole, 120 h): 136 µg/mL
- NM001 MIC50 in Combination (GEOMEAN, in combination with Itraconazole, 144 h): 197 µg/mL
- NM001 MIC100 in Combination (MEAN, in combination with Amphotericin B, 72 h): 39 µg/mL
- NM001 MIC50 in Combination (MEAN, in combination with Amphotericin B, 96 h): 59 µg/mL
- NM001 MIC50 in Combination (MEAN, in combination with Amphotericin B, 120 h): 221 µg/mL
- NM001 MIC50 in Combination (MEAN, in combination with Amphotericin B, 144 h): 469 µg/mL
- NM001 MIC100 in Combination (MEAN, in combination with Caspofungin, 72 h): 78 µg/mL
- NM001 MIC50 in Combination (MEAN, in combination with Caspofungin, 96 h): 102 µg/mL
- NM001 MIC50 in Combination (MEAN, in combination with Caspofungin, 120 h): 148 µg/mL
- NM001 MIC50 in Combination (MEAN, in combination with Caspofungin, 144 h): 417 µg/mL
- NM001 MIC100 in Combination (MEAN, in combination with Fluconazole, 72 h): 365 µg/mL
- NM001 MIC50 in Combination (MEAN, in combination with Fluconazole, 96 h): 176 µg/mL
- NM001 MIC50 in Combination (MEAN, in combination with Fluconazole, 120 h): 312.5 µg/mL
- NM001 MIC50 in Combination (MEAN, in combination with Fluconazole, 144 h): 400 µg/mL
- NM001 MIC100 in Combination (MEAN, in combination with Itraconazole, 72 h): 203 µg/mL
- NM001 MIC50 in Combination (MEAN, in combination with Itraconazole, 96 h): 89 µg/mL
- NM001 MIC50 in Combination (MEAN, in combination with Itraconazole, 120 h): 156.25 µg/mL
- NM001 MIC50 in Combination (MEAN, in combination with Itraconazole, 144 h): 208 µg/mL
- NM001 MIC100 in Combination (Range, in combination with Amphotericin B, 72 h): 39 µg/mL
- NM001 MIC50 in Combination (Range, in combination with Amphotericin B, 96 h): 39.0625 to 78.125 µg/mL
- NM001 MIC50 in Combination (Range, in combination with Amphotericin B, 120 h): 39.06 to 312.5 µg/mL
- NM001 MIC50 in Combination (Range, in combination with Amphotericin B, 144 h): 312.5 to 625 µg/mL
- NM001 MIC100 in Combination (Range, in combination with Caspofungin, 72 h): 78 µg/mL
- NM001 MIC50 in Combination (Range, in combination with Caspofungin, 96 h): 39.0625 to 156.25 µg/mL
- NM001 MIC50 in Combination (Range, in combination with Caspofungin, 120 h): 39.06 to 312.5 µg/mL
- NM001 MIC50 in Combination (Range, in combination with Caspofungin, 144 h): 312.5 to 625 µg/mL
- NM001 MIC100 in Combination (Range, in combination with Fluconazole, 72 h): 156 to 625 µg/mL
- NM001 MIC50 in Combination (Range, in combination with Fluconazole, 96 h): 39.06 to 156.25 µg/mL
- NM001 MIC50 in Combination (Range, in combination with Fluconazole, 120 h): 156.25 to 625 µg/mL
- NM001 MIC50 in Combination (Range, in combination with Fluconazole, 144 h): 39.0625 to 625 µg/mL
- NM001 MIC100 in Combination (Range, in combination with Itraconazole, 72 h): 78 to 312.5 µg/mL
- NM001 MIC50 in Combination (Range, in combination with Itraconazole, 96 h): 39.06 to 156.25 µg/mL
- NM001 MIC50 in Combination (Range, in combination with Itraconazole, 120 h): 78.13 to 312.5 µg/mL
- NM001 MIC50 in Combination (Range, in combination with Itraconazole, 144 h): 156.25 to 312.5 µg/mL
Compound: NCCS [NM001, cysteamine]

From patent US20160102052A1, “Use of Cysteamine in Treating Infections caused by Yeasts/Moulds” (priority 2014, published 2016)
